Converted amounts (≈) assume the structure as drawn.
What was measured:
Type in all cases: functional
[1] = test system: Leishmania donovani; assay: Antimicrobial activity against Leishmania donovani K132 promastigote; conditions: read-out: ED50 (the source's name)
[2] = test system: Leishmania donovani; assay: Antimicrobial activity against Leishmania donovani K498 amastigote
[3] = test system: Leishmania donovani; assay: Antimicrobial activity against Leishmania donovani K111 promastigote; conditions: read-out: ED50 (the source's name)
[4] = test system: Leishmania donovani; assay: Antimicrobial activity against Leishmania donovani K192 promastigote; conditions: read-out: ED50 (the source's name)
[5] = test system: Leishmania donovani; assay: Antimicrobial activity against Leishmania donovani K80 promastigote; conditions: read-out: ED50 (the source's name)
[6] = test system: Leishmania donovani; assay: Antimicrobial activity against Leishmania donovani K149 promastigote; conditions: read-out: ED50 (the source's name)
[7] = test system: Leishmania donovani; assay: Antimicrobial activity against Leishmania donovani K80 amastigote
[8] = test system: Leishmania donovani; assay: Antimicrobial activity against Leishmania donovani K131 promastigote; conditions: read-out: ED50 (the source's name)
[9] = test system: Leishmania donovani; assay: Antimicrobial activity against Leishmania donovani K216 promastigote; conditions: read-out: ED50 (the source's name)
[10] = test system: Leishmania donovani; assay: Antimicrobial activity against Leishmania donovani K429 promastigote; conditions: read-out: ED50 (the source's name)
[11] = test system: Leishmania donovani; assay: Antimicrobial activity against Leishmania donovani K516 amastigote
[12] = test system: Leishmania donovani; assay: Antimicrobial activity against Leishmania donovani K192 amastigote
[13] = test system: Leishmania donovani; assay: Antimicrobial activity against Leishmania donovani K509 amastigote
[14] = test system: Leishmania donovani; assay: Antimicrobial activity against Leishmania donovani K481 promastigote; conditions: read-out: ED50 (the source's name)
[15] = test system: Leishmania donovani; assay: Antimicrobial activity against Leishmania donovani K135 amastigote
[16] = test system: Leishmania donovani; assay: Antimicrobial activity against Leishmania donovani K132 amastigote
[17] = test system: Leishmania donovani; assay: Antimicrobial activity against Leishmania donovani K435 amastigote
[18] = test system: Leishmania donovani; assay: Antimicrobial activity against Leishmania donovani K111 amastigote
[19] = test system: Leishmania donovani; assay: Antimicrobial activity against Leishmania donovani K59 amastigote
[20] = test system: Leishmania donovani; assay: Antimicrobial activity against Leishmania donovani K429 amastigote
[21] = test system: Leishmania donovani; assay: Antimicrobial activity against Leishmania donovani LdAG83 promastigote; conditions: read-out: ED50 (the source's name)
[22] = test system: Leishmania donovani; assay: Antimicrobial activity against Leishmania donovani K481 amastigote
[23] = test system: Leishmania donovani; assay: Antimicrobial activity against Leishmania donovani K149 amastigote
[24] = test system: Leishmania donovani; assay: Antimicrobial activity against Leishmania donovani K439 promastigote; conditions: read-out: ED50 (the source's name)
[25] = test system: Leishmania donovani; assay: Antimicrobial activity against Leishmania donovani K251 amastigote
[26] = test system: Leishmania donovani; assay: Antimicrobial activity against Leishmania donovani K516 promastigote; conditions: read-out: ED50 (the source's name)
[27] = test system: Leishmania donovani; assay: Antimicrobial activity against Leishmania donovani K435 promastigote; conditions: read-out: ED50 (the source's name)
[28] = test system: Leishmania donovani; assay: Antimicrobial activity against Leishmania donovani K135 promastigote; conditions: read-out: ED50 (the source's name)
[29] = test system: Leishmania donovani; assay: Antimicrobial activity against Leishmania donovani K251 promastigote; conditions: read-out: ED50 (the source's name)
[30] = test system: Leishmania donovani; assay: Antimicrobial activity against Leishmania donovani K131 amastigote
[31] = test system: Leishmania donovani; assay: Antimicrobial activity against Leishmania donovani K216 amastigote
[32] = test system: Leishmania donovani; assay: Antimicrobial activity against Leishmania donovani K133 promastigote; conditions: read-out: ED50 (the source's name)
[33] = test system: Leishmania donovani; assay: Antimicrobial activity against Leishmania donovani K417 promastigote; conditions: read-out: ED50 (the source's name)
[34] = test system: Leishmania donovani; assay: Antimicrobial activity against Leishmania donovani K498 promastigote; conditions: read-out: ED50 (the source's name)
[35] = test system: Leishmania donovani; assay: Antimicrobial activity against Leishmania donovani K133 amastigote
[36] = test system: Leishmania donovani; assay: Antimicrobial activity against Leishmania donovani LdAG83 amastigote
[37] = test system: Leishmania donovani; assay: Antimicrobial activity against Leishmania donovani K59 promastigote; conditions: read-out: ED50 (the source's name)
[38] = test system: Leishmania donovani; assay: Antimicrobial activity against Leishmania donovani K439 amastigote
[39] = test system: Leishmania donovani; assay: Antimicrobial activity against Leishmania donovani K417 amastigote
[40] = read-out: ED50 (the source's name)

C[C@@H]1[C@H](O)[C@@H](C)/C=C/C=C/C=C/C=C/C=C/C=C/C=C/[C@H](O[C@@H]2O[C@H](C)[C@@H](O)[C@H](N)[C@@H]2O)C[C@@H]2O[C@](O)(C[C@@H](O)C[C@@H](O)[C@H](O)CC[C@@H](O)C[C@@H](O)CC(=O)O[C@H]1C)C[C@H](O)[C@H]2C(=O)O [AMPHOTERICIN B]
EC50 [1]: 1.22 µg/mL (≈ 1.32 µM) | EC50 [2, 40]: 0.54 µg/mL (≈ 0.584 µM) | EC50 [3]: 1.02 µg/mL (≈ 1.1 µM) | EC50 [4]: 0.78 µg/mL (≈ 0.844 µM) | EC50 [5]: 0.5 µg/mL (≈ 0.541 µM) | EC50 [6]: 1.46 µg/mL (≈ 1.58 µM) | EC50 [7, 40]: 0.18 µg/mL (≈ 0.195 µM) | EC50 [8]: 0.43 µg/mL (≈ 0.465 µM) | EC50 [9]: 0.52 µg/mL (≈ 0.563 µM) | EC50 [10]: 1.34 µg/mL (≈ 1.45 µM) | EC50 [11, 40]: 0.62 µg/mL (≈ 0.671 µM) | EC50 [12, 40]: 0.67 µg/mL (≈ 0.725 µM) | EC50 [13, 40]: 0.65 µg/mL (≈ 0.703 µM) | EC50 [14]: 0.69 µg/mL (≈ 0.747 µM) | EC50 [15, 40]: 0.25 µg/mL (≈ 0.271 µM) | EC50 [16, 40]: 0.22 µg/mL (≈ 0.238 µM) | EC50 [17, 40]: 0.17 µg/mL (≈ 0.184 µM) | EC50 [18, 40]: 0.2 µg/mL (≈ 0.216 µM) | EC50 [19, 40]: 0.18 µg/mL (≈ 0.195 µM) | EC50 [20, 40]: 0.37 µg/mL (≈ 0.4 µM) | EC50 [21]: 0.023 µg/mL (≈ 0.0249 µM) | EC50 [22, 40]: 0.55 µg/mL (≈ 0.595 µM) | EC50 [23, 40]: 0.28 µg/mL (≈ 0.303 µM) | EC50 [24]: 1.62 µg/mL (≈ 1.75 µM) | EC50 [25, 40]: 0.55 µg/mL (≈ 0.595 µM) | EC50 [26]: 1.26 µg/mL (≈ 1.36 µM) | EC50 [27]: 0.57 µg/mL (≈ 0.617 µM) | EC50 [28]: 0.31 µg/mL (≈ 0.335 µM) | EC50 [29]: 1.42 µg/mL (≈ 1.54 µM) | EC50 [30, 40]: 0.35 µg/mL (≈ 0.379 µM) | EC50 [31, 40]: 0.25 µg/mL (≈ 0.271 µM) | EC50 [32]: 0.65 µg/mL (≈ 0.703 µM) | EC50 [33]: 0.69 µg/mL (≈ 0.747 µM) | EC50 [34]: 1.16 µg/mL (≈ 1.26 µM) | EC50 [35, 40]: 0.21 µg/mL (≈ 0.227 µM) | EC50 [36, 40]: 0.017 µg/mL (≈ 0.0184 µM) | EC50 [37]: 0.5 µg/mL (≈ 0.541 µM) | EC50 [38, 40]: 0.77 µg/mL (≈ 0.833 µM) | EC50 [39, 40]: 0.44 µg/mL (≈ 0.476 µM)

D-gluconic acid 2,4:2',4'-O-[oxybis(oxidostibylidyne)]bis-trisodium salt nonahydrate
ED50 [2]: 15.8 µg/mL | ED50 [7]: 10.4 µg/mL | ED50 [11]: 16.5 µg/mL | ED50 [12]: 20.3 µg/mL | ED50 [13]: 16.8 µg/mL | ED50 [15]: 4.22 µg/mL | ED50 [16]: 3.95 µg/mL | ED50 [17]: 11.8 µg/mL | ED50 [18]: 5.63 µg/mL | ED50 [19]: 14.7 µg/mL | ED50 [20]: 13.8 µg/mL | ED50 [22]: 17.5 µg/mL | ED50 [23]: 15.7 µg/mL | ED50 [25]: 11.8 µg/mL | ED50 [30]: 19.4 µg/mL | ED50 [31]: 2.14 µg/mL | ED50 [35]: 3.45 µg/mL | ED50 [36]: 2.06 µg/mL | ED50 [38]: 12.9 µg/mL | ED50 [39]: 14.7 µg/mL
